Measurements from patent publication US20110040088A1, “FUSED HETEROCYCLIC COMPOUNDS” (priority 2003, published 2011).
pKi: −log10 of the molar value. Where two headings read alike, the source gives them in different places.

Tests used:
[1] = molecular target: T1, human recombinant 5-HT2C receptor (Homo sapiens, UniProt P28335); experiment: 5-HT2C receptor radioligand binding ([3H]mesulergine, CHO membranes);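 further: competitive displacement of the tritiated ligand, using membranes from CHO cells stably transfected with the human receptor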
T1 sequence (P28335 33-458): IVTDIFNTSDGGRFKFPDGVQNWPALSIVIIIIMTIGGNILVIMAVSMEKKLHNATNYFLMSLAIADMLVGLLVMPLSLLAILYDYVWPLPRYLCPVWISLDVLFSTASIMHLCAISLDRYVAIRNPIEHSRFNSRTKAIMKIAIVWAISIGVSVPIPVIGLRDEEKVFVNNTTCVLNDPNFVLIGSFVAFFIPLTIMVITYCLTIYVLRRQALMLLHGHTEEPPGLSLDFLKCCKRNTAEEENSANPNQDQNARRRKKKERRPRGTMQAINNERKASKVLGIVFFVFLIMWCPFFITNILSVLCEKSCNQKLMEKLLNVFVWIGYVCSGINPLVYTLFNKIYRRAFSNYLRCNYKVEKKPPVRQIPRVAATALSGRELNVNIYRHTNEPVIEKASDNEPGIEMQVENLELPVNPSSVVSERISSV
Protocol: (§1) Affinity for 5HT2 Receptor Binding Sites
(§2) Receptor binding was performed using the human recombinant 5-HT2A (GB: X57830), 5-HT2B (GB: Z36748) and 5-HT2c (GB: M81778) receptors. The affinity of the compounds for the 3 different human 5-HT2 receptor subtypes was evaluated by competitive radioligand binding assays using [^3H]ketanserin (h5-HT2A) or [^3H]mesulergine (h5-HT2B and h5-HT2c). The assays were performed on membranes prepared from NIH3T3 stably transfected with h5-HT2A or CHO stably transfected with h5-HT2B and h5-HT2C.

rat 5-HT7a receptor [2] = molecular target: T2, rat 5-HT7a receptor (Rattus norvegicus, UniProt P32305); experiment: 5-HT7 receptor radioligand binding ([3H]5-CT, membranes of transfected HEK-293 cells); conditions: rat 5-HT7a in HEK-293 membranes, 1 nM [3H]5-CT
T2 construct: expressed in transfected cells
T2 sequence (P32305 whole entry): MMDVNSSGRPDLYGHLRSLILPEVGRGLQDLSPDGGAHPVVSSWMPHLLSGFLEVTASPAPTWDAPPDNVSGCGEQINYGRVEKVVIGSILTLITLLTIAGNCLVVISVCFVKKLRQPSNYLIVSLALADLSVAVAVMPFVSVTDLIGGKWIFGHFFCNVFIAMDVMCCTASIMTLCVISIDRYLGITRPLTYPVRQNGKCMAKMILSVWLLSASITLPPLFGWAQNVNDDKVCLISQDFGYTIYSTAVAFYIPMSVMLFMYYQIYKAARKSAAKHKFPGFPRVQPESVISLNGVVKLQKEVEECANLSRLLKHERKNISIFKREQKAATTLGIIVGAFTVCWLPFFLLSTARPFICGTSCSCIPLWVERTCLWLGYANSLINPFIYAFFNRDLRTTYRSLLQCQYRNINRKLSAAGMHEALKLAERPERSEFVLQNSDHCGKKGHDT

[3] = molecular target: human recombinant 5-HT2B receptor (Homo sapiens, UniProt P41595); experiment: 5-HT2B receptor radioligand binding ([3H]mesulergine, CHO membranes);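 further: competitive displacement binding on membranes of CHO cells stably expressing the receptor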
Sequence of human recombinant 5-HT2B receptor (P41595 whole entry): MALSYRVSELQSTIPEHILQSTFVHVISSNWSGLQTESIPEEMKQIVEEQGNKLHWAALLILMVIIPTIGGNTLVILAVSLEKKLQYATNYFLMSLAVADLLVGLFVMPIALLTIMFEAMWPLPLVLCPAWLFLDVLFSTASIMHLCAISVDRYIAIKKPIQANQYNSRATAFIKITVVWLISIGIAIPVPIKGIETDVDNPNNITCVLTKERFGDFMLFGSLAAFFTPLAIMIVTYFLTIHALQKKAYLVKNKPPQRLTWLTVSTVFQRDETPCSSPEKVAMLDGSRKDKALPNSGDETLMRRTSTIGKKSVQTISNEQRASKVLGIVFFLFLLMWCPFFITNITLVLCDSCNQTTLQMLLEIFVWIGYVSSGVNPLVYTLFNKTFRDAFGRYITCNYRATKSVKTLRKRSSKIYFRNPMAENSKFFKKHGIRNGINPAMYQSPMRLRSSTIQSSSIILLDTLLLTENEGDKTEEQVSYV
Protocol: as §1, §2

5-HT2A receptor = 5-HT2A receptor (UniProt P28223); experiment: 5-HT2A receptor radioligand binding ([3H]ketanserin); conditions: read-out: Ki 5-HT2A, table does not say whether rat cortex or human recombinant (NIH3T3) receptor;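 further: competitive displacement binding on membranes, either from rat cerebral cortex or from NIH3T3 cells stably expressing human 5-HT2A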
Protocol: The affinity of the compounds for the rat 5-HT2A receptor was evaluated by competitive radioligand binding assay using [^3H]ketanserine as the radioligand. The assay was performed on membranes from rat cortex as previously described (Schotte, A. et al., Psychopharmacology (1996) 124: 57-73). Briefly, brain tissue (rat cortex) was homogenized in 20 volumes per wet weight tissue of Tris-HCl buffer (50 mM, pH 7.4). The total membrane fraction was collected by centrifugation and washed by subsequent centrifugation runs (25 min at 25,000 g at 4° C.). Membranes were re-suspended in Tris-HCl buffer (50 mM, pH 7.4) containing 1 nM [^3H]ketanserin. Non-specific binding was estimated in the presence of 10 μM risperidone.

rat 5-HT7a receptor [4] = molecular target: T2, rat 5-HT7a receptor; experiment: Adenylyl cyclase assay (5-CT-stimulated cAMP) in r5-HT7a/HEK-293 cells; format: cell-based
Protocol: 2. Effect on Adenylyl Cyclase Activity
In vitro functional properties of the compounds described in this invention were evaluated in an adenylyl cyclase assay. HEK-293 cells stably tranfected with the rat 5-HT7a receptor were plated into 96-well plates. Cells were washed with 200 μL DNEM/F12 and incubated for 10 min with 80 μL of 2 mM 3-isobutyl-1-methylxanthine. Compounds (10 μL) were added for another 10 min. Subsequently, 5-CT (10 μL) was added. After 20 min the incubation was stopped by the addition of 20 μL of 0.5 N HCl. Plates were incubated at 4° C. for 30 min. Twenty μL of the supernatant were assayed for cAMP content with a commercially available kit (Perkin Elmer) using ^125I-cAMP. Sigmoidal curves of best fit were calculated by nonlinear regression analysis using GrapPad Prism.
5-CT-stimulated adenylyl cyclase activity in r5-HT7a/HEK-293 cells was inhibited by Example 59 with an estimated pKB˜8 in good agreement with the Ki value determined from [^3H]5-CT binding studies.

[5] = read-out: Ki 5-HT2C, h5-HT2C in CHO membranes, [3H]mesulergine

| Structure (SMILES) | pKi [1] | pKi (rat 5-HT7a receptor [2]) | pKi [3] | pKi (5-HT2A receptor) | Kb (rat 5-HT7a receptor [4]; r5-HT7a/HEK-293 cells, estimated) | pKi [1, 5] | pKi ([3]; read-out: Ki 5-HT2B, h5-HT2B in CHO membranes, [3H]mesulergine) | Kb (rat 5-HT7a receptor [4]; printed in the Ki 5-HT7 column of Table 1, read-out: pKb 5-HT7 (converted)) |
| --- | --- | --- | --- | --- | --- | --- | --- | --- |
| Clc1ccc(-c2nn(Cc3ccccc3)c3c2CCNCC3)cc1 [Example 59, 1-Benzyl-3-(4-chloro-phenyl)-1,4,5,6,7,8-hexahydro-1,2,6-triaza-azulene] | 7.13 | 8.22 | 6.80 | 6.55 | ~10 nM | – | – | – |
| Oc1ccc(Cn2nc(-c3ccc(Cl)cc3)c3c2CCNCC3)cc1F [Example 160, 4-[3-(4-Chloro-phenyl)-5,6,7,8-tetrahydro-4H-1,2,6-triaza-azulen-1-ylmethyl]-2-fluoro-phenol] | 5.46 | 8.15 | 6.46 | 6.52 | – | – | – | – |
| c1ccc(Cn2nc3c(c2-c2ccccc2)CCNCC3)cc1 [Example 133, 2-Benzyl-3-phenyl-2,4,5,6,7,8-hexahydro-1,2,6-triaza-azulene] | 8.00 | 6.90 | 8.46 | 8.64 | – | – | – | – |
| Fc1cccc(Cn2nc(-c3ccc(Cl)cc3)c3c2CCNCC3)c1 [Example 76, 3-(4-Chloro-phenyl)-1-(3-fluoro-benzyl)-1,4,5,6,7,8-hexahydro-1,2,6-triaza-azulene] | 6.16 | 8.10 | 6.46 | 6.68 | – | – | – | – |
| Clc1ccc(-c2c3c(nn2C2CCC2)CCNCC3)cc1 [Example 238, 3-(4-Chloro-phenyl)-2-cyclobutyl-2,4,5,6,7,8-hexahydro-1,2,6-triaza-azulene] | 7.89 | 7.40 | 9.30 | 9.00 | – | – | – | – |
| Cc1ccc(-c2c3c(nn2C(C)C)CC(C)NCC3)cc1 (centres unmarked) [Example 315, 2-Isopropyl-7-methyl-3-p-tolyl-2,4,5,6,7,8-hexahydro-1,2,6-triaza-azulene] | 6.52 | 7.92 | 8.52 | 8.05 | – | – | – | – |
| FC(F)(F)c1ccc(-c2c3c(nn2C2CCCC2)CCNCC3)cc1 [Example 218, 2-Cyclopentyl-3-(4-trifluoromethyl-phenyl)-2,4,5,6,7,8-hexahydro-1,2,6-triaza-azulene] | 7.82 | 7.12 | 8.74 | 8.77 | – | – | – | – |
| CC1Cc2c(nn(C3CCCC3)c2-c2ccc(F)cc2)CCN1 (centres unmarked) [Example 309, 2-Cyclopentyl-3-(4-fluoro-phenyl)-5-methyl-2,4,5,6,7,8-hexahydro-1,2,6-triaza-azulene] | 6.89 | 6.89 | 7.82 | 7.52 | – | – | – | – |
| CCc1ccc(-c2c3c(nn2C(C)C)CCNCC3)cc1 [Example 210, 3-(4-Ethyl-phenyl)-2-isopropyl-2,4,5,6,7,8-hexahydro-1,2,6-triaza-azulene] | 7.70 | 8.15 | 9.12 | 8.70 | – | – | – | – |
| Fc1ccc(-c2c3c(nn2C2CC2)CCNCC3)cc1 [Example 282, 2-Cyclopropyl-3-(4-fluoro-phenyl)-2,4,5,6,7,8-hexahydro-1,2,6-triaza-azulene] | – | 7.00 | – | 8.22 | – | 6.70 | 7.70 | – |
| Clc1ccc(-c2c3c(nn2C2CCCC2)CCNCC3)cc1 [Example 181, 3-(4-Chloro-phenyl)-2-cyclopentyl-2,4,5,6,7,8-hexahydro-1,2,6-triaza-azulene] | 7.96 | 7.43 | 8.74 | 8.82 | – | – | – | – |
| Fc1ccc(Cn2nc(-c3ccc(Cl)cc3)c3c2CCNCC3)cc1 [Example 75, 3-(4-Chloro-phenyl)-1-(4-fluoro-benzyl)-1,4,5,6,7,8-hexahydro-1,2,6-triaza-azulene] | 6.49 | 8.15 | 7.00 | 6.70 | – | – | – | – |
| Fc1ccc(-c2nn(Cc3ccccc3)c3c2CCNCC3)cc1 [Example 47, 1-Benzyl-3-(4-fluoro-phenyl)-1,4,5,6,7,8-hexahydro-1,2,6-triaza-azulene] | 7.62 | 8.15 | 7.19 | 8.05 | – | – | – | – |
| CC1Cc2nn(C(C)C)c(-c3ccc(F)cc3)c2CCN1 (centres unmarked) [Example 313, 3-(4-Fluoro-phenyl)-2-isopropyl-7-methyl-2,4,5,6,7,8-hexahydro-1,2,6-triaza-azulene] | 6.00 | 7.52 | 7.40 | 7.00 | – | – | – | – |
| c1cc(-c2c3c(nn2C2CCCC2)CCNCC3)co1 [Example 232, 2-Cyclopentyl-3-furan-3-yl-2,4,5,6,7,8-hexahydro-1,2,6-triaza-azulene] | 7.18 | 7.70 | 9.30 | 7.60 | – | – | – | – |
| CC(C)n1nc2c(c1-c1ccc(C(F)(F)F)cc1)CCNCC2 [Example 213, 2-Isopropyl-3-(4-trifluoromethyl-phenyl)-2,4,5,6,7,8-hexahydro-1,2,6-triaza-azulene] | – | 7.92 | 8.33 | 8.12 | – | 7.10 | – | – |
| CCC(CC)n1nc2c(c1-c1ccc(F)c(C)c1)CCNCC2 [Example 283, 2-(1-Ethyl-propyl)-3-(4-fluoro-3-methyl-phenyl)-2,4,5,6,7,8-hexahydro-1,2,6-triaza-azulene] | 6.82 | 5.30 | 7.22 | 8.00 | – | – | – | – |
| Cc1ccc(-c2c3c(nn2C(C)C)CCNCC3)cc1 [Example 209, 2-Isopropyl-3-p-tolyl-2,4,5,6,7,8-hexahydro-1,2,6-triaza-azulene] | – | 8.22 | 8.85 | 8.96 | – | 7.92 | – | – |
| CCC(CC)n1nc2c(c1-c1ccc(F)cc1)CCNCC2 [Example 184, 2-(1-Ethyl-propyl)-3-(4-fluoro-phenyl)-2,4,5,6,7,8-hexahydro-1,2,6-triaza-azulene] | 7.82 | 6.92 | 7.77 | 9.00 | – | – | – | – |
| CCC(C)n1nc2c(c1-c1ccc(C)cc1)CCNCC2 (centres unmarked) [Example 300, 2-sec-Butyl-3-p-tolyl-2,4,5,6,7,8-hexahydro-1,2,6-triaza-azulene] | 7.92 | 8.00 | 9.10 | 9.52 | – | – | – | – |
| CN1CCc2c(c(-c3ccc(Cl)cc3)cn2Cc2ccccc2)C1 [Example 38, 1-Benzyl-3-(4-chloro-phenyl)-5-methyl-4,5,6,7-tetrahydro-1H-pyrrolo[3,2-c]pyridine] | – | – | – | – | – | – | – | 15.8 nM |
| N#Cc1ccc(-c2c3c(nn2C2CCC2)CCNCC3)cc1 [Example 280, 4-(2-Cyclobutyl-2,4,5,6,7,8-hexahydro-1,2,6-triaza-azulen-3-yl)-benzonitrile] | 6.92 | 5.48 | 8.22 | 8.82 | – | – | – | – |
